Patent EP0937723A1, “Novel sulfonamides, process for their preparation and medicaments containing them” (Roche Diagnostics GmbH, priority 1998, dated 1999)
Counter-ions that a name gives are not always drawn.

What was measured:
humanem Faktor Xa = biological target: T1, humanem Faktor Xa (Homo sapiens, UniProt P00742); test: Inhibition constant Ki, chromogenic substrate Chromozym X, photometric at 405 nm; assay type: biochemical; conditions: pH 7.5, 25°C, 0.1 M phosphate buffer, 0.2 M NaCl; read-out: Ki (fXa)
T1 construct: humanem Faktor Xa; purchased Boehringer Mannheim GmbH
Method: (§1) Die kinetischen Messungen wurden in 0.2 M Kochsalz und 0.5 % Polyethylenglycol 6000 enthaltendem 0.1 M Phosphatpuffer (Herstellung siehe unten) bei pH 7.5 und 25°C in Polystyrol-Halbmikroküvetten in einem Gesamtvolumen von 1 ml durchgeführt . Die Reaktionen wurden durch Zugabe von Enzym zu vorinkubierten Lösungen, die entweder Dimethylsulfoxid (Kontrolle) oder Lösungen der Testsubstanz in DMSO (Inhibitor-Stocklösungen: 10 mM in DMSO) enthielten, gestartet. Die Zunahme der Extinktion bei 405 nm als Folge der Freisetzung von 4-Nitroanilin aus dem Substrat wurde photometrisch über einen Zeitraum von 12 Minuten verfolgt. Im Abstand von 20 Sekunden wurden Meßwerte (Extinktion vs. Zeit) ermittelt und diese Daten per Computer gespeichert.
(§2) Zur Bestimmung der Inhibitionskonstanten Ki wurde wie folgt vorgegangen: Die Geschwindigkeiten V0 (Extinktionsänderung pro Sekunde; Messungen ohne Inhibitor) und Vi (Extinktionsänderung pro Sekunde; Messungen mit Inhibitor) wurden durch lineare Regression bestimmt, wobei nur die Meßpunkte berücksichtigt wurden, bei der sich die Substratkonzentration um weniger als 15% verringerte. Aus einer Meßreihe (konstante Inhibitorkonzentration, variable Substratkonzentrationen) bestimmte man KM und VMAX durch nichtlinearen Fit auf die Gleichung V =(Vmax *[S])/([S]+KM) [formula] […]

Humanes α-Thrombin = biological target: T2, Humanes α-Thrombin (Homo sapiens, UniProt P00734); test: Inhibition constant Ki, chromogenic substrate S-2238, photometric at 405 nm; assay type: biochemical; conditions: pH 7.5, 25°C, 0.1 M phosphate buffer, 0.2 M NaCl
T2 construct: Humanes α-Thrombin; purchased Sigma
Method: as §1, §2

[1] = biological target: T3, bovines pankreatisches Trypsin (Bos taurus, UniProt P00760); test: as above; assay type: biochemical, bovin; conditions: pH 7.5, 25°C, 0.1 M phosphate buffer, 0.2 M NaCl
T3 construct: bovines pankreatisches Trypsin (Sigma); purchased Sigma; host or cells: bovine pancreas
T3 sequence (P00760 24-246): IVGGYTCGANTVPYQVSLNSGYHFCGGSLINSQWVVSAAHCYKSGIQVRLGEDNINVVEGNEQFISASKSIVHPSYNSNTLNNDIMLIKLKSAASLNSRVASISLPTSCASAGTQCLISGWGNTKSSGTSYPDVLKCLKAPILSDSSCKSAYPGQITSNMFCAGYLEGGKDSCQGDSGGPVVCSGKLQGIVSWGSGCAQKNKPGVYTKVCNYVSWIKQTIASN
Method: as §1, §2

Citratplasma = test: Activated partial thromboplastin time (APTT) in citrated plasma, ball coagulometer; assay type: biochemical; conditions: time as difference to control (control ca. 28-35 s)
Method: (§3) Neun Teile frisches Blut gesunder Spender werden mit einem Teil Natriumcitratlösung (0.11 Mol/l) gemischt und bei ca. 3000 U/min 10 Minuten bei Raumtemperatur zentrifügiert. Das Plasma wird abpipettiert und kann bei Raumtemperatur ca. 8 h aufbewahrt werden.
100 µl Citratplasma und 100 µl APTT-Reagenz (Diagnostica Stago / Boehringer Mannheim GmbH; enthält Lyophilisat Cephalin mit mikrokristallinem Kieselguraktivator) werden zusammen mit 10 µl Dimethylsulfoxid (DMSO) oder 10 µl einer Lösung der Wirksubstanz in DMSO in einem Kugelkoagulometer (KC10 der Fa. Amelung) 3 Minuten bei 37°C inkubiert. Mit Zugabe von 100 µl 0.025 M Calciumchlorid-Lösung wird eine Stoppuhr gestartet und der Zeitpunkt bis zum Eintritt der Gerinnung bestimmt. Die APTT beträgt bei den Kontrollmessungen ca. 28 -35 Sekunden und wird durch Wirksubstanzen verlängert. Sofern bei den Messungen nach 5 Minuten keine Gerinnung eintrat, wurde der Versuch gestoppt (>300).
In Tabelle 1 sind die gemessenen APTT-Zeiten in Sekunden als Differenz zur Kontrolle angegeben. Die Konzentrationen der Wirksubstanzen betrugen im Endvolumen 1000 µM (APTT 1000), 100 µM (APTT 100), 10 µM (APTT 10), 1 µM (APTT 1).

Pferdethrombin = test: Thrombin time in citrated plasma with thrombin reagent, ball coagulometer; assay type: biochemical, Pferd; conditions: 500 µM final concentration; time as difference to control (control ca. 24 s)
Method: as §3
200 µl Citratplasma werden in einem Kugelkoagulometer (KC10 der Fa. Amelung) 2 Minuten bei 37°C inkubiert. Zu 190 µl vortemperiertem Thrombin-Reagenz (Boehringer Mannheim GmbH; enthält ca. 3 U/ml Pferdethrombin und 0.0125 M Ca^++ gibt man 10 µl Dimethylsulfoxid (DMSO) oder eine Lösung der Wirksubstanz in DMSO. Mit Zugabe dieser 200 µl Lösung zum Plasma wird eine Stoppuhr gestartet und der Zeitpunkt bis zum Eintritt der Gerinnung bestimmt. Die Thrombinzeit beträgt bei den Kontrollmessungen ca. 24 Sekunden und wird durch Wirksubstanzen verlängert. Sofern bei den Messungen nach 5 Minuten keine Gerinnung eintrat, wurde der Versuch gestoppt (>300).
In Tabelle 1 sind die gemessenen Thrombinzeiten in Sekunden als Differenz zur Kontrolle angegeben. Die Konzentrationen der Wirksubstanzen betrugen im Endvolumen 500 µM (TT 500).

T1 sequence (P00742 235-488 limits assumed): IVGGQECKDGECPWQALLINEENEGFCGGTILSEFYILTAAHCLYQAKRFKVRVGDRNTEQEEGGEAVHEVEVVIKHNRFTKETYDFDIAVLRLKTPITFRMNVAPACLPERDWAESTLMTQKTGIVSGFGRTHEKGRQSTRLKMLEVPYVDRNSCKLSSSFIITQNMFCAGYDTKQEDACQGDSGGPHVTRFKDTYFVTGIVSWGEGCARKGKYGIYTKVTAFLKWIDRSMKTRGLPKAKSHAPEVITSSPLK
T1 sequence (P00742 41-179 partner limits assumed): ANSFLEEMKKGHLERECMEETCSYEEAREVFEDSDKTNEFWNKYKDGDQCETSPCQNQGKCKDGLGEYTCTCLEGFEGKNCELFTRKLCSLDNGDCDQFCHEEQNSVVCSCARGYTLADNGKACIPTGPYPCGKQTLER

Compound: N=C(N)N1CCC(Oc2ccc(S(=O)(=O)Nc3ccc4c(c3)CN(C(=N)N)CC4)cc2)CC1 [Beispiel 1, 7-[4-(1-Carbamimidoyl-piperidin-4-yloxy)-benzolsulfonylamino]-3,4-dihydro-1H-isochinolin-2-carboxamidin-dihydrochlorid]
- Ki (humanem Faktor Xa): 10 nM
- Ki (Humanes α-Thrombin): 2000 nM
- Ki [1]: 100 nM
- APTT 1 (Citratplasma; 1 µM final concentration): 12 Sekunden
- APTT 10 (Citratplasma; 10 µM final concentration): 50 Sekunden
- APTT 100 (Citratplasma; 100 µM final concentration): 140 Sekunden
- APTT 1000 (Citratplasma; 1000 µM final concentration, test stopped after 5 min (>300)): > 300 Sekunden
- TT 500 (Pferdethrombin): 40 Sekunden
